Several values for one entry are separate records, joined by “and”; a condition that tells them apart may be missing. Equal entries are not always repeated. Entries after “also recorded” stand apart in the source; their conditions may differ. Where two headings read alike, the source gives them in different places.
What was measured:
[1] = system: T. brucei BSF cells (WT); test: Alamar blue cell viability assay, wild type; settings: Trypanosoma brucei, 72 h, read-out: IC50 growth WT;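 also: trypanosomes seeded at 5×10^3 per ml and grown 72 h with compound, then resazurin 0.5 mM added for 4 h as the viability read-out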
[2] = biological target: T. brucei PKA (Trypanosoma brucei brucei, UniProt Q9GU80); test: In vivo PKA reporter assay (VASP Ser-157 phosphorylation, western blot); assay type: cell-based; settings: for EC50: read-out: EC50 in vivo PKA assay, VASP reporter, 15 min treatment, mean ± SD; for % VASP phosphorylation: CpdA 10 µM, replicates; for effect on in vivo PKA activity (VASP phosphorylation), in words: wild type background;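 as to % VASP phosphorylation: Phosphorylated VASP as percent of total VASP band signal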;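 as to all read-outs here: T. brucei cells expressing human VASP as heterologous PKA substrate, compound exposure at 37 °C, western blot of phospho (50 kDa) versus unphosphorylated (46 kDa) VASP band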
T. brucei PKA, sequence (Q38DS1 entry or part of it): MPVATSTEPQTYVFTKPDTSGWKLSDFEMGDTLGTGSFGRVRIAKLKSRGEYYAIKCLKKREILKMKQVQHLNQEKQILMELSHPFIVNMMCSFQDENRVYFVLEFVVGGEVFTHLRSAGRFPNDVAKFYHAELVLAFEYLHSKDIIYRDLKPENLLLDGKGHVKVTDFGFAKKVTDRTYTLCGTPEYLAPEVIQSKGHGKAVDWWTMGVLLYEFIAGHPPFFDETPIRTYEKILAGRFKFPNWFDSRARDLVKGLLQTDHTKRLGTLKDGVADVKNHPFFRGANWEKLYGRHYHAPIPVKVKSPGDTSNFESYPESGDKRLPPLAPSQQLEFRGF
T. brucei PKA, sequence (Q38DR5 entry or part of it, further chain): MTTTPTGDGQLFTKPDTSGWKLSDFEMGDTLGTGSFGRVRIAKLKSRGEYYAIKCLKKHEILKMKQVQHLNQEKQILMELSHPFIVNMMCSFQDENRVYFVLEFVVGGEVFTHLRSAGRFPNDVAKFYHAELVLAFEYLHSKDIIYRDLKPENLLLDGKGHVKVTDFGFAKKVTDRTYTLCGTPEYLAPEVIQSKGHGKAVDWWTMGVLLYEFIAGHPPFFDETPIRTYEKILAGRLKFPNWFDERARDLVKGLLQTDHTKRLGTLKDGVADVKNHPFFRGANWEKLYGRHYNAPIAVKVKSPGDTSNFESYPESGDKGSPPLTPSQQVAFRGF
T. brucei PKA, sequence (Q9GU80 entry or part of it): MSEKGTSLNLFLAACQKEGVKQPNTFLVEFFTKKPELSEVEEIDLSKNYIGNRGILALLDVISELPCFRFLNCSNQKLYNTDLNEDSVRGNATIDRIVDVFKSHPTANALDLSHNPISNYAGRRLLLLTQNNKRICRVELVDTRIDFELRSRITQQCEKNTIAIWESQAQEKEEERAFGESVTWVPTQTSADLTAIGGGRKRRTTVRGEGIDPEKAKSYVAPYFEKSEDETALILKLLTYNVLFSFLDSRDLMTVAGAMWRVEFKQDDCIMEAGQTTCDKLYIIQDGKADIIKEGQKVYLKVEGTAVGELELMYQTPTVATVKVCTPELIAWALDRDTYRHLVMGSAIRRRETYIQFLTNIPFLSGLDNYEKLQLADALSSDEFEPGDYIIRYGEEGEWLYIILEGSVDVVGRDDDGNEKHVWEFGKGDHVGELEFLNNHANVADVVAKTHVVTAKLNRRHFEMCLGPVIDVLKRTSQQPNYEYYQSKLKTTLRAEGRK

[3] = biological target: T. brucei PKAR-PKAC1 holoenzyme (Trypanosoma brucei, UniProt Q9GU80); test: biochemical; assay type: biochemical; settings: for In vitro kinase assay: technical replicates
T. brucei PKAR-PKAC1 holoenzyme, sequence (Q38DR5 entry or part of it): as the sequence (Q38DR5 entry or part of it, further chain) above

[4] = system: T. brucei ∆pkar/∆pkar (pkar KO) cells; test: microbe, parasite or virus in culture; assay type: cell-based, Trypanosoma brucei; settings: Trypanosoma brucei, 72 h, read-out: IC50 growth pkar KO
[5] = biological target: T1, human PKARIα (Homo sapiens, UniProt P10644); test: Binding by isothermal titration calorimetry (ITC)
T1 construct: The full length ORFs (amplified with primers introducing the respective); 6xHis followed by TEV site (N); made in house; host or cells: E. coli Rosetta D3
T1 sequence (P10644 whole entry): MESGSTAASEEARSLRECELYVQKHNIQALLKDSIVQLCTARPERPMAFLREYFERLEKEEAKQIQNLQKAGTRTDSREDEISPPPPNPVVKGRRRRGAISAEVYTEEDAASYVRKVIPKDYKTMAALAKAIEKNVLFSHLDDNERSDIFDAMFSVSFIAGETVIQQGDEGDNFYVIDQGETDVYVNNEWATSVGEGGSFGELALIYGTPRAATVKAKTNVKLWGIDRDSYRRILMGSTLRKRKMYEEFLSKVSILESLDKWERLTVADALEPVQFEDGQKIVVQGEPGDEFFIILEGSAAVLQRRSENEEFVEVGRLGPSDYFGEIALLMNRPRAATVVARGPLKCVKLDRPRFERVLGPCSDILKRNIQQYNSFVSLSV

[6] = biological target: T. brucei PKAR(199–499) (Trypanosoma brucei, UniProt Q9GU80); test: biochemical; assay type: binding; design: Thermodynamics (ITC) -TΔS / Thermodynamics (ITC) ΔG / Thermodynamics (ITC) ΔH: unit: kcal/mol
T. brucei PKAR(199–499), sequence (Q9GU80 entry or part of it): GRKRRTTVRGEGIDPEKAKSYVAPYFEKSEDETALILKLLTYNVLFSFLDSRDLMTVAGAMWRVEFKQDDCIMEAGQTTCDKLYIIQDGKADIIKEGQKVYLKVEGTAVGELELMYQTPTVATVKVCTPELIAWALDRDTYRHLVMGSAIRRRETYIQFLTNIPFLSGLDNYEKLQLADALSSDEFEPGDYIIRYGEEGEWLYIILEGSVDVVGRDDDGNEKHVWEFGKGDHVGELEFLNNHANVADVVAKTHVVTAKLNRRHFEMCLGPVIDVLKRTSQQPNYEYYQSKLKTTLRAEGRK

[7] = system: intracellular cAMP; test: Cyclic AMP measurement (intracellular cAMP content); assay type: cell-based, Trypanosoma brucei; settings: for pmol cAMP / 10^9 cells: independent replicates
[8] = system: cAMP release into the medium; test: Fraction of cAMP in cell supernatant versus total cell lysate; settings: CpdA treatment 10 µM, 15 min
[9] = system: T. brucei PKA holoenzyme (HA-PKAC2); assay type: biochemical, Trypanosoma brucei; settings: control without cyclic nucleotide, 5 µM PKI(5-24)
[10] = system: T. brucei PKA holoenzyme (Ty1-PKAC1); assay type: biochemical, Trypanosoma brucei; settings: for in vitro kinase assay [CPM] / in vitro kinase assay [CPM], PKI: 5 µM PKI(5-24); for in vitro kinase assay [CPM], PKI: control without cyclic nucleotide
[11] = system: T. brucei PKA holoenzyme (PKAR-Ty1); assay type: biochemical, Trypanosoma brucei; settings: control without cyclic nucleotide, 5 µM PKI(5-24)

Molecule: Nc1ncnc2c1c(Br)cn2[C@@H]1O[C@H](CO)[C@@H](O)[C@H]1O [5-Br-Tu, 7-Bromo-7-deazaadenosine]
- IC50 [1]: 874 ± 122 nM
- EC50 [2]: 625 ± 66 nM
- EC50 [3]: 1700 ± 1400 nM
- In vitro kinase assay ([3]; 0.049 µM): 0.15 U/ml and 0.17 U/ml
- In vitro kinase assay ([3]; 0.098 µM): 0.25 U/ml and 0.22 U/ml
- In vitro kinase assay ([3]; 0.195 µM): 0.27 U/ml and 0.24 U/ml
- In vitro kinase assay ([3]; 0.391 µM): 0.37 U/ml and 0.39 U/ml
- In vitro kinase assay ([3]; 0.781 µM): 0.53 U/ml and 0.48 U/ml
- In vitro kinase assay ([3]; 1.563 µM): 0.72 U/ml and 0.59 U/ml
- In vitro kinase assay ([3]; 3.125 µM): 0.85 U/ml and 0.72 U/ml
- In vitro kinase assay ([3]; 6.25 µM): 0.89 U/ml and 1.03 U/ml
- In vitro kinase assay ([3]; 12.5 µM): 1.09 U/ml and 1.13 U/ml
- In vitro kinase assay ([3]; 25 µM): 1.41 U/ml and 1.21 U/ml
- In vitro kinase assay ([3]; 50 µM): 1.29 U/ml and 1.22 U/ml
- IC50 [4]: 1010 ± 95 nM

Molecule: Nc1ncnc2c1c(I)cn2[C@@H]1O[C@H](CO)[C@@H](O)[C@H]1O [5-I-Tu, 7-Iodo-7-deazaadenosine]
- IC50 [1]: 330 ± 38 nM
- EC50 [2]: 390 ± 20 nM
- EC50 [3]: 203 ± 79 nM
- In vitro kinase assay ([3]; 0.001 µM): 0.15 U/ml and 0.13 U/ml
- In vitro kinase assay ([3]; 0.05 µM): 0.22 U/ml and 0.25 U/ml
- In vitro kinase assay ([3]; 0.1 µM): 0.4 U/ml and 0.36 U/ml
- In vitro kinase assay ([3]; 0.2 µM): 0.45 U/ml
- In vitro kinase assay ([3]; 0.39 µM): 0.75 U/ml and 0.61 U/ml
- In vitro kinase assay ([3]; 0.78 µM): 0.77 U/ml and 0.8 U/ml
- In vitro kinase assay ([3]; 1.56 µM): 0.79 U/ml and 0.91 U/ml
- In vitro kinase assay ([3]; 3.13 µM): 0.81 U/ml and 0.96 U/ml
- IC50 [4]: 346 ± 41 nM
- binding to purified human PKARIα, in words [5]: did not bind
- Kd [6]: 32 ± 9 nM
- Thermodynamics (ITC) -TΔS ([6]; independent replicates): 6.36 and 3.65 and 4.67
- Thermodynamics (ITC) ΔG ([6]; independent replicates): -10.1 and -10.5
- Thermodynamics (ITC) ΔH ([6]; independent replicates): -16.5 and -14.1 and -14.8

Molecule: COc1ccc(C2=NN(C3CCCCCC3)C(=O)[C@@H]3CC=CC[C@H]23)cc1OCCCCOc1ccc(-c2nn[nH]n2)cc1 [CpdA]
- increase of intracellular cAMP content ([7]; 10 µM, 15 min): up to 600 fold
- pmol cAMP / 10^9 cells ([7]; 10 µM, 15 min): 7046.18 pmol cAMP / 10^9 cells and 6980.91 pmol cAMP / 10^9 cells and 7465.44 pmol cAMP / 10^9 cells and 6294.38 pmol cAMP / 10^9 cells and 9321.55 pmol cAMP / 10^9 cells and 2818.14 pmol cAMP / 10^9 cells
- % cAMP, total, mean ([7]; CpdA treatment 10 µM, 15 min, total cAMP content set to 100%, mean of technical replicates): 94.1035%
- % cAMP, total ([7]; CpdA treatment 10 µM, 15 min, total cAMP content set to 100%, technical replicates): 100% and 88.2071%
- nM cAMP, total ([7]; CpdA treatment 10 µM, 15 min, total, technical replicates): 1891.66 nM and 1668.58 nM
- % VASP phosphorylation ([2]; 0 min): 37.2015% and 33.1548% and 30.9406%
- % VASP phosphorylation ([2]; 5 min): 28.9269% and 25.7882% and 23.4179%
- % VASP phosphorylation ([2]; 10 min): 28.8598% and 22.1225% and 21.1026%
- % VASP phosphorylation ([2]; 15 min): 26.7433% and 23.5931% and 18.9766%
- effect on in vivo PKA activity (VASP phosphorylation), in words [2]: did not elicit any change
- % cAMP, supernatant, mean ([8]; mean of technical replicates): 3.201%
- nM cAMP, supernatant ([8]; technical replicates): 74.7051 nM and 46.4145 nM
- % cAMP, supernatant ([8]; total cAMP content set to 100%): 3.949% and 2.454%

Molecule: OCCN(CCO)c1nc(N2CCCCC2)c2nc(N(CCO)CCO)nc(N3CCCCC3)c2n1 [Dipyridamole]
- change of intracellular cAMP content, in words ([7]; 100 µM): moderate increase
- pmol cAMP / 10^9 cells ([7]; 100 µM, 15 min, listed as Dip): 61.8873 pmol cAMP / 10^9 cells and 63.0147 pmol cAMP / 10^9 cells and 44.8294 pmol cAMP / 10^9 cells and 64.5236 pmol cAMP / 10^9 cells and 80.946 pmol cAMP / 10^9 cells and 55.0958 pmol cAMP / 10^9 cells
- pmol cAMP / 10^9 cells ([7]; 100 µM, 90 min, listed as Dip): 47.769 pmol cAMP / 10^9 cells and 56.3468 pmol cAMP / 10^9 cells and 59.8493 pmol cAMP / 10^9 cells and 40.4717 pmol cAMP / 10^9 cells and 46.5418 pmol cAMP / 10^9 cells and 46.5962 pmol cAMP / 10^9 cells
- IC50 [1]: 9900 ± 1000 nM
- induction of VASP phosphorylation in pkar knock out, in words ([2]; homozygous deletion of PKAR): no induction
- EC50 [2]: 22400 ± 4200 nM
- effect on in vivo PKA activity (VASP phosphorylation), in words [2]: dose- and time-dependent induction
- effect in the in vitro kinase assay, in words [3]: did not have any effect; also recorded: No effect
- IC50 [4]: 16300 ± 1800 nM

Molecule: NC(=O)c1cn([C@@H]2O[C@H](CO)[C@@H](O)[C@H]2O)c2ncnc(N)c12 [Sangivamycin, 7-Carboxamido-7-deazaadenosine]
- IC50 [1]: 713 ± 40 nM
- EC50 [2]: 39300 ± 5600 nM
- EC50 ([2]; listed as sangivamycin): 39000 nM
- EC50 [3]: 10800 nM
- In vitro kinase assay ([3]; 0.049 µM): 0.15 U/ml and 0.17 U/ml
- In vitro kinase assay ([3]; 0.098 µM): 0.15 U/ml
- In vitro kinase assay ([3]; 0.195 µM): 0.19 U/ml and 0.18 U/ml
- In vitro kinase assay ([3]; 0.391 µM): 0.2 U/ml and 0.15 U/ml
- In vitro kinase assay ([3]; 0.781 µM): 0.17 U/ml
- In vitro kinase assay ([3]; 1.563 µM): 0.2 U/ml and 0.16 U/ml
- In vitro kinase assay ([3]; 3.125 µM): 0.22 U/ml and 0.24 U/ml
- In vitro kinase assay ([3]; 6.25 µM): 0.29 U/ml and 0.28 U/ml
- In vitro kinase assay ([3]; 12.5 µM): 0.33 U/ml and 0.31 U/ml
- In vitro kinase assay ([3]; 25 µM): 0.44 U/ml and 0.4 U/ml
- In vitro kinase assay ([3]; 50 µM): 0.44 U/ml
- IC50 [4]: 1550 ± 171 nM

Molecule: PKI(5–24)
- in vitro kinase assay [CPM], PKI [9]: 483.2 CPM
- in vitro kinase assay [CPM] ([10]; Ty1-PKAC1#1): 1999.9 CPM
- in vitro kinase assay [CPM] ([10]; Ty1-PKAC1#2): 1386.5 CPM
- in vitro kinase assay [CPM] ([10]; Ty1-PKAC1-dead#11): 834.7 CPM
- in vitro kinase assay [CPM] ([10]; Ty1-PKAC1-dead#12): 571.7 CPM
- in vitro kinase assay [CPM] ([10]; Ty1-PKAC1-dead#14): 1493.5 CPM
- in vitro kinase assay [CPM] ([10]; pull down from WT cells (negative control)): 398.6 CPM
- phosphorylation of kemptide, in words ([10]; 5 µM inhibitor): inhibited
- in vitro kinase assay [CPM], PKI ([10]; Supp Fig 3b): 963.87 CPM
- in vitro kinase assay [CPM], PKI ([10]; Supp Fig 3c): 528.13 CPM
- in vitro kinase assay [CPM], PKI [11]: 1399.6 CPM
